Data as given in PubChem BioAssay AID1259407 (Chemical Carcinogenesis Research Information System (CCRIS), 2018).
The source made the active and inactive calls. No rule for the calls is given here.

Test system: CCRIS mutagenicity, Ames/micronucleus/aberration tests
Assay: CCRIS mutagenicity studies
[1] = Test System: AMES SALMONELLA TYPHIMURIUM, Strain/Indicator: TA98, Metabolic Activation: NONE, Method: STANDARD PLATE
[2] = Test System: AMES SALMONELLA TYPHIMURIUM, Strain/Indicator: TA100, Metabolic Activation: NONE, Method: STANDARD PLATE

## C=CC(=O)OCCCCC
[1]
  mutagenic call: inactive; negative
Test System: AMES SALMONELLA TYPHIMURIUM, Strain/Indicator: TA98, Metabolic Activation: RAT, LIVER, S-9, AROCLOR 1254, Method: STANDARD PLATE
  mutagenic call: inactive; negative
Test System: AMES SALMONELLA TYPHIMURIUM, Strain/Indicator: TA98, Metabolic Activation: RAT, LIVER, S-9, SODIUM PHENOBARBITAL, Method: STANDARD PLATE
  mutagenic call: inactive; negative
[2]
  mutagenic call: inactive; negative
Test System: AMES SALMONELLA TYPHIMURIUM, Strain/Indicator: TA100, Metabolic Activation: RAT, LIVER, S-9, AROCLOR 1254, Method: STANDARD PLATE
  mutagenic call: inactive; negative
Test System: AMES SALMONELLA TYPHIMURIUM, Strain/Indicator: TA100, Metabolic Activation: RAT, LIVER, S-9, SODIUM PHENOBARBITAL, Method: STANDARD PLATE
  mutagenic call: inactive; negative
Test System: AMES SALMONELLA TYPHIMURIUM, Strain/Indicator: TA1535, Metabolic Activation: NONE, Method: STANDARD PLATE
  mutagenic call: inactive; negative
Test System: AMES SALMONELLA TYPHIMURIUM, Strain/Indicator: TA1535, Metabolic Activation: RAT, LIVER, S-9, AROCLOR 1254, Method: STANDARD PLATE
  mutagenic call: inactive; negative
Test System: AMES SALMONELLA TYPHIMURIUM, Strain/Indicator: TA1535, Metabolic Activation: RAT, LIVER, S-9, SODIUM PHENOBARBITAL, Method: STANDARD PLATE
  mutagenic call: inactive; negative
Test System: AMES SALMONELLA TYPHIMURIUM, Strain/Indicator: TA1537, Metabolic Activation: NONE, Method: STANDARD PLATE
  mutagenic call: inactive; negative
Test System: AMES SALMONELLA TYPHIMURIUM, Strain/Indicator: TA1537, Metabolic Activation: RAT, LIVER, S-9, AROCLOR 1254, Method: STANDARD PLATE
  mutagenic call: inactive; negative
Test System: AMES SALMONELLA TYPHIMURIUM, Strain/Indicator: TA1537, Metabolic Activation: RAT, LIVER, S-9, SODIUM PHENOBARBITAL, Method: STANDARD PLATE
  mutagenic call: inactive; negative
Test System: AMES SALMONELLA TYPHIMURIUM, Strain/Indicator: TA1538, Metabolic Activation: NONE, Method: STANDARD PLATE
  mutagenic call: inactive; negative
Test System: AMES SALMONELLA TYPHIMURIUM, Strain/Indicator: TA1538, Metabolic Activation: RAT, LIVER, S-9, AROCLOR 1254, Method: STANDARD PLATE
  mutagenic call: inactive; negative
Test System: AMES SALMONELLA TYPHIMURIUM, Strain/Indicator: TA1538, Metabolic Activation: RAT, LIVER, S-9, SODIUM PHENOBARBITAL, Method: STANDARD PLATE
  mutagenic call: inactive; negative

## CC1COc2c(N3CCN(C)CC3)c(F)cc3c(=O)c(C(=O)O)cn1c23 (centres undefined)
End Point: AMES SALMONELLA TYPHIMURIUM, Test System: TA98, Metabolic Activation: NONE, Method: STANDARD PLATE
  mutagenic call: active; positive
End Point: AMES SALMONELLA TYPHIMURIUM, Test System: TA100, Metabolic Activation: NONE, Method: STANDARD PLATE
  mutagenic call: inactive; negative
Test System: AMES SALMONELLA TYPHIMURIUM, Strain/Indicator: HISG428, Metabolic Activation: NONE, Method: STANDARD PLATE
  mutagenic call: inactive; negative
Test System: AMES SALMONELLA TYPHIMURIUM, Strain/Indicator: TA92, Metabolic Activation: NONE, Method: STANDARD PLATE
  mutagenic call: active; positive
Test System: AMES SALMONELLA TYPHIMURIUM, Strain/Indicator: TA102, Metabolic Activation: NONE, Method: STANDARD PLATE
  mutagenic call: active; positive
Test System: AMES SALMONELLA TYPHIMURIUM, Strain/Indicator: TA103, Metabolic Activation: NONE, Method: STANDARD PLATE
  mutagenic call: active; positive
Test System: AMES SALMONELLA TYPHIMURIUM, Strain/Indicator: TA104, Metabolic Activation: NONE, Method: STANDARD PLATE
  mutagenic call: inactive; negative
Test System: AMES SALMONELLA TYPHIMURIUM, Strain/Indicator: TA2638, Metabolic Activation: NONE, Method: STANDARD PLATE
  mutagenic call: active; positive
Test System: AMES SALMONELLA TYPHIMURIUM, Strain/Indicator: TA2661, Metabolic Activation: NONE, Method: STANDARD PLATE
  mutagenic call: inactive; negative
Test System: AMES SALMONELLA TYPHIMURIUM, Strain/Indicator: TA2662, Metabolic Activation: NONE, Method: STANDARD PLATE
  mutagenic call: active; positive
Test System: AMES SALMONELLA TYPHIMURIUM, Strain/Indicator: TA2678, Metabolic Activation: NONE, Method: STANDARD PLATE
  mutagenic call: inactive; negative
Test System: CHINESE HAMSTER V-79, Strain/Indicator: V-79 (HPRT)/6-THIOGUANINE, Metabolic Activation: NONE
  mutagenic call: inactive; negative
Test System: MOUSE LYMPHOMA, Strain/Indicator: L5178Y (HPRT)/6-THIOGUANINE, Metabolic Activation: NONE, Method: FLUCTUATION TEST
  mutagenic call: inactive; negative
Test System: MOUSE LYMPHOMA, Strain/Indicator: L5178Y (TK+/TK-), Metabolic Activation: NONE, Method: FLUCTUATION TEST
  mutagenic call: inactive; negative

## CN(CO)N=O
Test System: CHINESE HAMSTER V-79, Strain/Indicator: V-79/OUABAIN, Metabolic Activation: NONE
  mutagenic call: active; positive

## CC/C(=C(/c1ccc(OCCN(C)C)cc1)c1ccc(OP(=O)(O)O)cc1)c1ccc(C(C)C)cc1
Test System: AMES SALMONELLA TYPHIMURIUM, Strain/Indicator: TA98, Metabolic Activation: NONE, Method: PREINCUBATION
  mutagenic call: inactive; negative
Test System: AMES SALMONELLA TYPHIMURIUM, Strain/Indicator: TA98, Metabolic Activation: RAT, LIVER, S-9, Method: PREINCUBATION
  mutagenic call: inactive; negative
Test System: AMES SALMONELLA TYPHIMURIUM, Strain/Indicator: TA100, Metabolic Activation: NONE, Method: PREINCUBATION
  mutagenic call: inactive; negative
Test System: AMES SALMONELLA TYPHIMURIUM, Strain/Indicator: TA100, Metabolic Activation: RAT, LIVER, S-9, Method: PREINCUBATION
  mutagenic call: inactive; negative
Test System: AMES SALMONELLA TYPHIMURIUM, Strain/Indicator: TA1535, Metabolic Activation: NONE, Method: PREINCUBATION
  mutagenic call: inactive; negative
Test System: AMES SALMONELLA TYPHIMURIUM, Strain/Indicator: TA1535, Metabolic Activation: RAT, LIVER, S-9, Method: PREINCUBATION
  mutagenic call: inactive; negative
Test System: AMES SALMONELLA TYPHIMURIUM, Strain/Indicator: TA1537, Metabolic Activation: NONE, Method: PREINCUBATION
  mutagenic call: inactive; negative
Test System: AMES SALMONELLA TYPHIMURIUM, Strain/Indicator: TA1537, Metabolic Activation: RAT, LIVER, S-9, Method: PREINCUBATION
  mutagenic call: inactive; negative
Test System: E. COLI, Strain/Indicator: WP2 UVRA, Metabolic Activation: NONE, Method: PREINCUBATION
  mutagenic call: inactive; negative
Test System: E. COLI, Strain/Indicator: WP2 UVRA, Metabolic Activation: RAT, LIVER, S-9, Method: PREINCUBATION
  mutagenic call: inactive; negative

## O=[N+]([O-])c1cc2[nH]c3ccc4ccc(O)cc4c3c2c2ccccc12
[1]
  mutagenic call: active; positive
Test System: AMES SALMONELLA TYPHIMURIUM, Strain/Indicator: TA98, Metabolic Activation: RAT, LIVER, S-9, 3-METHYLCHOLANTHRENE, Method: STANDARD PLATE
  mutagenic call: active; positive
[2]
  mutagenic call: active; positive
Test System: AMES SALMONELLA TYPHIMURIUM, Strain/Indicator: TA100, Metabolic Activation: RAT, LIVER, S-9, 3-METHYLCHOLANTHRENE, Method: STANDARD PLATE
  mutagenic call: active; positive
